Laboratory results published in ChEMBL document CHEMBL1201862, “PubChem BioAssay data set” (2004).
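In this assay, cells in 96-well plates receive the compound at five concentrations for 48 hours. Endpoints are linearly interpolated between the surrounding concentrations. GI50 = concentration required for 50% inhibition of growth.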 Active and inactive are the calls of the source. Cut-off read from the data, not from the text of the source: active = GI50 up to about 1.1 µM and inactive = higher.

Assays:
Test in all cases: inhibition of tumour cell growth, NCI panel, 48 h
[1] = system: CCRF-CEM
[2] = system: NCI-H460
[3] = system: UACC-257
[4] = system: SF-268
[5] = system: SK-MEL-5
[6] = system: 786-0
[7] = system: Malme-3M
[8] = system: M14
[9] = system: U-251
[10] = system: SNB-75
[11] = system: OVCAR-8
[12] = system: RPMI-8226
[13] = system: HCT-116
[14] = system: MOLT-4
[15] = system: ACHN
[16] = system: A498
[17] = system: LOX IMVI
[18] = system: COLO 205
[19] = system: UO-31
[20] = system: HL-60

Compound | GI50 [1] | GI50 [2] | GI50 [3] | GI50 [4] | GI50 [5] | GI50 [6] | GI50 [7] | GI50 [8] | GI50 [9] | GI50 [10] | GI50 [11] | GI50 [12] | GI50 [13] | GI50 [14] | GI50 [15] | GI50 [16] | GI50 [17] | GI50 [18] | GI50 [19] | GI50 [20]
CCCCSCc1nc2nc(Cl)c(Cl)nc2[nH]1 | 11.3 µM (inactive) | 20.6 µM (inactive) | 16.1 µM (inactive) | 35.6 µM (inactive) | 11.8 µM (inactive) | 25.6 µM (inactive) | 20.3 µM (inactive) | 23.8 µM (inactive) | 20.9 µM (inactive) | 19 µM (inactive) | 34.9 µM (inactive) | 12.9 µM (inactive) | 19.5 µM (inactive) | 19.5 µM (inactive) | 23.9 µM (inactive) | 21.8 µM (inactive) | 21.7 µM (inactive) | 21.3 µM (inactive) |  | 
COc1ccc(-c2c(C#N)c(-c3ccc(C)cc3)n(NS(=O)(=O)c3ccc(C)cc3)c(=O)c2C#N)cc1 | 23.7 µM (inactive) | 54.3 µM (inactive) | > 100 µM (inactive) | 56.6 µM (inactive) | 23.5 µM (inactive) | 86.5 µM (inactive) | > 100 µM (inactive) | 55.2 µM (inactive) | 53.6 µM (inactive) | 31.2 µM (inactive) | 72.3 µM (inactive) | 17.3 µM (inactive) | 38.5 µM (inactive) | 19.8 µM (inactive) | 50.6 µM (inactive) | 92 µM (inactive) | 39.3 µM (inactive) | 90.2 µM (inactive) |  | 
O=C1CCCN1C(=O)CS(=O)(=O)c1ccccc1 | > 100 µM (inactive) | > 100 µM (inactive) | > 100 µM (inactive) | > 100 µM (inactive) | > 100 µM (inactive) | > 100 µM (inactive) | > 100 µM (inactive) | > 100 µM (inactive) | > 100 µM (inactive) | > 100 µM (inactive) | > 100 µM (inactive) | > 100 µM (inactive) | > 100 µM (inactive) | > 100 µM (inactive) | > 100 µM (inactive) | > 100 µM (inactive) | > 100 µM (inactive) | > 100 µM (inactive) | > 100 µM (inactive) | 
Nc1ccc(-c2ncc3cc(-c4cccc(-c5cc6cnc(-c7ccc(N)cc7)nc6c6ccccc56)c4)c4ccccc4c3n2)cc1 | > 100 µM (inactive) | > 100 µM (inactive) | > 100 µM (inactive) | > 100 µM (inactive) | 34.5 µM (inactive) | > 100 µM (inactive) |  | 60.1 µM (inactive) | > 100 µM (inactive) | > 100 µM (inactive) | > 100 µM (inactive) | > 100 µM (inactive) | > 100 µM (inactive) | > 100 µM (inactive) | > 100 µM (inactive) | > 100 µM (inactive) | > 100 µM (inactive) | 35.3 µM (inactive) | > 100 µM (inactive) | 
CCO/N=[N+](\[O-])N(CC)CC | > 100 µM (inactive) | > 100 µM (inactive) | > 100 µM (inactive) | > 100 µM (inactive) | > 100 µM (inactive) |  |  | > 100 µM (inactive) |  |  | > 100 µM (inactive) |  | > 100 µM (inactive) | > 100 µM (inactive) | > 100 µM (inactive) | > 100 µM (inactive) | > 100 µM (inactive) |  | > 100 µM (inactive) | > 100 µM (inactive)
Nc1cccc(C#Cc2cccc(C#Cc3cccc(N)n3)n2)n1 | 5.85 µM (inactive) | 37.2 µM (inactive) | > 100 µM (inactive) | > 100 µM (inactive) | 47.4 µM (inactive) | 55.6 µM (inactive) |  | > 100 µM (inactive) | > 100 µM (inactive) | > 100 µM (inactive) | > 100 µM (inactive) | 91 µM (inactive) | > 100 µM (inactive) | 32.8 µM (inactive) | > 100 µM (inactive) | > 100 µM (inactive) | > 100 µM (inactive) | > 100 µM (inactive) | > 100 µM (inactive) | 
NC(=O)CC(N)C(=O)NC(Cc1ccccc1)C(=O)NC(Cc1ccccc1)NC(=O)C(Cc1c[nH]c2ccccc12)C(=O)O (stereo not given) | > 100 µM (inactive) | > 100 µM (inactive) | > 100 µM (inactive) | > 100 µM (inactive) | 49.4 µM (inactive) | > 100 µM (inactive) | > 100 µM (inactive) | > 100 µM (inactive) | > 100 µM (inactive) | 71.8 µM (inactive) | > 100 µM (inactive) | > 100 µM (inactive) | > 100 µM (inactive) | > 100 µM (inactive) | > 100 µM (inactive) | > 100 µM (inactive) | > 100 µM (inactive) | > 100 µM (inactive) | > 100 µM (inactive) | 
O=C1CC(c2ccsc2)n2cccc21 (stereo not given) | > 100 µM (inactive) |  | > 100 µM (inactive) | > 100 µM (inactive) | > 100 µM (inactive) | > 100 µM (inactive) |  | > 100 µM (inactive) | > 100 µM (inactive) | 32.1 µM (inactive) | > 100 µM (inactive) | > 100 µM (inactive) | > 100 µM (inactive) | > 10 µM (inactive) | > 100 µM (inactive) | > 100 µM (inactive) |  | > 100 µM (inactive) | > 100 µM (inactive) | > 100 µM (inactive)
CCCN(CCCCC(NC(C)=O)C(=O)NCc1ccccc1)C(=O)NC (stereo not given) | > 100 µM (inactive) | > 100 µM (inactive) | > 100 µM (inactive) | > 100 µM (inactive) | > 100 µM (inactive) | > 100 µM (inactive) | > 100 µM (inactive) | > 100 µM (inactive) | > 100 µM (inactive) | 95.7 µM (inactive) | > 100 µM (inactive) | > 100 µM (inactive) | > 100 µM (inactive) | > 100 µM (inactive) | > 100 µM (inactive) | > 100 µM (inactive) | > 100 µM (inactive) | > 100 µM (inactive) | > 100 µM (inactive) | 
BrC/C=C/C[P+](c1ccccc1)(c1ccccc1)c1ccccc1 | > 100 µM (inactive) | 7.46 µM (inactive) | 8.57 µM (inactive) | 15.7 µM (inactive) | 11.1 µM (inactive) | 10.3 µM (inactive) | 12.4 µM (inactive) | 13.7 µM (inactive) | 24 µM (inactive) | 19.8 µM (inactive) | 3.91 µM (inactive) | 0.927 µM (active) | 3.97 µM (inactive) | > 100 µM (inactive) | 12.2 µM (inactive) |  | 10.4 µM (inactive) | 4.53 µM (inactive) | 34.2 µM (inactive) | 2.54 µM (inactive)
COC(=O)CP1(=O)OC2C(C3CCC2(C)C3(C)C)N1c1cc(C(F)(F)F)cc(C(F)(F)F)c1 (stereo not given) |  | 22.2 µM (inactive) | 32.8 µM (inactive) | 23 µM (inactive) | 36.3 µM (inactive) | 18.2 µM (inactive) | 17.3 µM (inactive) | 32.3 µM (inactive) | 26.1 µM (inactive) | 15.7 µM (inactive) | 36.1 µM (inactive) | 15.9 µM (inactive) | 12.6 µM (inactive) | 16.7 µM (inactive) | > 100 µM (inactive) | > 100 µM (inactive) | 22.4 µM (inactive) | 24 µM (inactive) | 32.9 µM (inactive) | 
COc1cc(C(=O)C2C(=O)c3ccccc3C2C2(O)c3ccccc3CC2C(O)c2cc(OC)c(OC)c(OC)c2)cc(OC)c1OC (stereo not given) |  | > 100 µM (inactive) | > 100 µM (inactive) | 91.4 µM (inactive) | > 100 µM (inactive) | > 100 µM (inactive) | > 100 µM (inactive) | > 100 µM (inactive) | 41.3 µM (inactive) | 20.3 µM (inactive) | 62.4 µM (inactive) | 15.2 µM (inactive) | > 100 µM (inactive) | > 100 µM (inactive) | > 100 µM (inactive) | > 100 µM (inactive) | > 100 µM (inactive) | > 100 µM (inactive) | > 100 µM (inactive) | 
C=CCC1C2CCC(O[Si](C(C)C)(C(C)C)C(C)C)(C(C(=O)OC)C2)C1O (stereo not given) | 60.8 µM (inactive) | 61.8 µM (inactive) | 38.3 µM (inactive) | > 100 µM (inactive) | 53 µM (inactive) | 17.2 µM (inactive) |  | 94.8 µM (inactive) | 60.3 µM (inactive) | 71.1 µM (inactive) | > 100 µM (inactive) | 72.6 µM (inactive) | 19.5 µM (inactive) | 35.2 µM (inactive) | > 100 µM (inactive) | > 100 µM (inactive) |  | > 100 µM (inactive) | 49.2 µM (inactive) | 13.3 µM (inactive)
CCCC(=O)Oc1cc(OC(=O)CCC)c2c(C)cc(=O)oc2c1 | 31.9 µM (inactive) |  | 83.6 µM (inactive) | > 100 µM (inactive) | 67.9 µM (inactive) | 82.6 µM (inactive) | 76.6 µM (inactive) | > 100 µM (inactive) | 78.3 µM (inactive) | 52.4 µM (inactive) | 75.7 µM (inactive) | 32.2 µM (inactive) | 50.1 µM (inactive) | 29 µM (inactive) | > 100 µM (inactive) | 46.1 µM (inactive) | 40.1 µM (inactive) | 40 µM (inactive) | 39.6 µM (inactive) | 
CN(C)Cc1cc(/C(=C(\C#N)c2ccccc2)c2ccc(O)cc2)ccc1O | 18.4 µM (inactive) | 19.6 µM (inactive) | 15.6 µM (inactive) | 20 µM (inactive) | 14.5 µM (inactive) | 15 µM (inactive) | 16.1 µM (inactive) | 10.4 µM (inactive) | 17.9 µM (inactive) | 17.5 µM (inactive) | 19.1 µM (inactive) | 20.2 µM (inactive) | 10.2 µM (inactive) | 15.3 µM (inactive) | 13.9 µM (inactive) | 32.2 µM (inactive) | 12.1 µM (inactive) | 14.5 µM (inactive) | 20.4 µM (inactive) | 
